Laboratory results: ChEMBL document CHEMBL6134801, “SMARCA2 protein: Structure, function and perspectives of drug design” (Eur J Med Chem, 2025)

What follows are compounds tested against T1, SWI/SNF-related matrix-associated actin-dependent regulator of chromatin subfamily A member 2 (Homo sapiens, UniProt P51531) (assay: Induction of thermal stabilization of SMARCA2 (unknown origin) assessed as change in melting temperature by fluorescence based thermal shift assay).
T1 sequence (P51531 whole entry): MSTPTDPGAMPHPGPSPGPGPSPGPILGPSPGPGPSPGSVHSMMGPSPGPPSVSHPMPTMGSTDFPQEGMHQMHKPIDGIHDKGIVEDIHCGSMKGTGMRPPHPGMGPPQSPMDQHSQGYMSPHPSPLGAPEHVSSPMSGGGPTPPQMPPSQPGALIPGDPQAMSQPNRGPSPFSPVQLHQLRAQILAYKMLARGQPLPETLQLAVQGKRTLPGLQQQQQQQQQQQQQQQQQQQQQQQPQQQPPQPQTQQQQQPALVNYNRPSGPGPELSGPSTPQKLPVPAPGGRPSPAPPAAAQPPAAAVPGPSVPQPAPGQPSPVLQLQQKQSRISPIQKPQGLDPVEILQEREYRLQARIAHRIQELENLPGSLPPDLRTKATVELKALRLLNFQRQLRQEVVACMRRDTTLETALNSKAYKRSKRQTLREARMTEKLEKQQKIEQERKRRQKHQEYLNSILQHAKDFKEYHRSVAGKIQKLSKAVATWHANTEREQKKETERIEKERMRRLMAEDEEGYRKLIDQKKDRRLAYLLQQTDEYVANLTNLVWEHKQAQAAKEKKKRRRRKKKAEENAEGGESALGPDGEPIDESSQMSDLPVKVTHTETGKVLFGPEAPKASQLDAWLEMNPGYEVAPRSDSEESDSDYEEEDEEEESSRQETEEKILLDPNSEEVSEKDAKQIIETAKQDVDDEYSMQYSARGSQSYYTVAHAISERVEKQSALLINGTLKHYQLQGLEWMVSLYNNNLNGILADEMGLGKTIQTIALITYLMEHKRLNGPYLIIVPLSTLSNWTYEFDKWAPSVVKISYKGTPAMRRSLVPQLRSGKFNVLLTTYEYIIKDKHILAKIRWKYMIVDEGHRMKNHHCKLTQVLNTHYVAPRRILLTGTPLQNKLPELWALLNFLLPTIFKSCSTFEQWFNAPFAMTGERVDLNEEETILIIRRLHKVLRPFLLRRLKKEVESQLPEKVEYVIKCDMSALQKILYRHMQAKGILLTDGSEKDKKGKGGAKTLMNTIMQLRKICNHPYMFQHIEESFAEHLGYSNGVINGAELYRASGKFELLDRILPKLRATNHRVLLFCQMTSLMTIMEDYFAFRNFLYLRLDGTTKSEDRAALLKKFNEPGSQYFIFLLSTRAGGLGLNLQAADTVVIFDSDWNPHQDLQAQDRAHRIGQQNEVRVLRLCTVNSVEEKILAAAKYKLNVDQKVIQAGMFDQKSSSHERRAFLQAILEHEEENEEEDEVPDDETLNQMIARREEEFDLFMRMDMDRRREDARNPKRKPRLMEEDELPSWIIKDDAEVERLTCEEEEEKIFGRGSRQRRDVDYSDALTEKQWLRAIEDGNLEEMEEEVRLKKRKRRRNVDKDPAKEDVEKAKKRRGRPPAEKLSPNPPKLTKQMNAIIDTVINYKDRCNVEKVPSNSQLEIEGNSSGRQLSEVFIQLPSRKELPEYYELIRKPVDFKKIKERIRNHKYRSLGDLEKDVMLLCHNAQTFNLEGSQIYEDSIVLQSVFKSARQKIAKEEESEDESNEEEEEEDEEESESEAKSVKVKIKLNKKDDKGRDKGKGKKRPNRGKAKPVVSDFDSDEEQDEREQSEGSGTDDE

SMILES | ΔTm
O=C(O)c1ccccc1O | 1.3 °C

These compounds were tested against T1, SWI/SNF-related matrix-associated actin-dependent regulator of chromatin subfamily A member 2 (assay: Inhibition of SMARCA2 (unknown origin)).

SMILES | IC50
COc1cc(CNCc2ccccn2)ccc1OCc1cccs1 | 17 µM
COc1cc(CNCc2ccccn2)cc(Cl)c1OCc1ccc(Cl)cc1Cl | 9.1 µM
COc1cc(CNCc2ccccn2)ccc1OCc1cccc(Cl)c1 | 9.2 µM
COc1cc(CNCc2ccccn2)ccc1OCc1ccccc1F | 9 µM
COc1cc(CNCc2ccccn2)cc(Cl)c1OCc1ccc(Cl)cc1 | 30.2 µM
